compound: Cc1nc(C(=O)NCC(=O)O)c(O)c2ccc(Oc3ccccc3)cc12 [FG-4592] + C[C@@H](Oc1cc(-c2cnn(C3CCNCC3)c2)cnc1N)c1c(Cl)ccc(F)c1Cl [Crizotinib] (partner 1 µM); assay: relative viability (nuclei count vs DMSO), 5 days (fraction); higher = more cells survive; settings: first compound 0.08 µM
Procedure, shortened: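 Lung cancer cell lines in 1536-well plates were dosed by pin tool the day after seeding, either with one drug alone or with a fixed anchor-drug dose plus five library-drug doses (not always all listed) in √10 steps. After 5 days, cells were fixed and their nuclei stained in one step (final 0.05% Triton X-100, 1% formaldehyde, 1 ug/ml Hoechst), then counted on 4× images. Relative viability is the nuclei count in treated wells divided by that in vehicle wells. Values are medians of duplicate plates.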

Compared with Calu-6, HCC-366 is lower in relative viability: 0.753 for the first, 0.469 for the second.

Going from NCI-H1666 to NCI-H596, the relative viability rises from 0.993 to 1.02.

Compared with NCI-H2087, SK-MES-1 is higher in relative viability: 0.722 for the first, 0.913 for the second.

Compared with H3255, COR-L23 is lower in relative viability: 0.963 for the first, 0.574 for the second.

First: COR-L 105
Second: IA-LM
The relative viability of the first is higher: 0.785 for the first, 0.766 for the second.

First: LOU-NH91
Second: ChaGo-K-1
The relative viability of the first is lower: 0.738 for the first, 1.12 for the second.

Compared with NCI-H2170, NCI-H2405 is lower in relative viability: 1.16 for the first, 0.665 for the second.

Compared with A549, NCI-H1299 is higher in relative viability: 0.631 for the first, 0.953 for the second.

First: CAL-12T
Second: NCI-H2228
The relative viability of the first is higher: 0.664 for the first, 0.592 for the second.

First: NCI-H1563
Second: NCI-H1944
The relative viability of the first is lower: 0.893 for the first, 1.05 for the second.

Going from ABC-1 to NCI-H358, the relative viability falls from 1.28 to 0.531.

same assay, conditions: first compound 0.253 µM

First: NCI-H727
Second: NCI-H1650
The relative viability of the first is higher: 0.827 for the first, 0.826 for the second.

Going from EBC-1 to NCI-H1703, the relative viability rises from 0.186 to 0.572.

Compared with NCI-H1993, SW 1573 is lower in relative viability: 0.873 for the first, 0.7 for the second.

First: NCI-H838
Second: LCLC-103H
The relative viability of the first is lower: 0.799 for the first, 0.977 for the second.

First: NCI-H520
Second: NCI-H2126
The relative viability of the first is lower: 0.652 for the first, 1.01 for the second.

First: EMC-BAC-2
Second: NCI-H2085
The relative viability of the first is lower: 0.749 for the first, 0.871 for the second.

Going from Calu-6 to HCC-366, the relative viability falls from 0.811 to 0.471.

Going from NCI-H1666 to NCI-H596, the relative viability falls from 0.903 to 0.898.

Compared with LK-2, NCI-H2087 is higher in relative viability: 0.23 for the first, 0.648 for the second.

Compared with SK-MES-1, H3255 is lower in relative viability: 0.854 for the first, 0.79 for the second.

Going from COR-L23 to COR-L 105, the relative viability rises from 0.571 to 0.578.

Compared with IA-LM, LOU-NH91 is lower in relative viability: 0.824 for the first, 0.677 for the second.

First: ChaGo-K-1
Second: NCI-H2170
The relative viability of the first is lower: 1.09 for the first, 1.14 for the second.

Compared with NCI-H2405, A549 is higher in relative viability: 0.657 for the first, 0.736 for the second.

Going from NCI-H1299 to CAL-12T, the relative viability falls from 0.903 to 0.62.

Going from NCI-H2228 to NCI-H1563, the relative viability rises from 0.279 to 0.888.

First: NCI-H1944
Second: NCI-H358
The relative viability of the first is higher: 1.1 for the first, 0.602 for the second.

same assay, conditions: first compound 0.8 µM

First: NCI-H727
Second: NCI-H1650
The relative viability of the first is lower: 0.913 for the first, 1.21 for the second.

Compared with EBC-1, NCI-H1703 is higher in relative viability: 0.178 for the first, 0.702 for the second.

Compared with NCI-H1993, SW 1573 is lower in relative viability: 0.919 for the first, 0.71 for the second.

Going from NCI-H838 to LCLC-103H, the relative viability rises from 0.962 to 1.01.

First: NCI-H520
Second: NCI-H2126
The relative viability of the first is lower: 0.932 for the first, 1.04 for the second.

Going from EMC-BAC-2 to NCI-H2085, the relative viability rises from 0.813 to 0.928.

Going from Calu-6 to HCC-366, the relative viability falls from 0.855 to 0.565.

First: NCI-H1666
Second: NCI-H2087
The relative viability of the first is lower: 0.829 for the first, 1.01 for the second.

Going from SK-MES-1 to H3255, the relative viability falls from 1 to 0.827.

First: COR-L23
Second: COR-L 105
The relative viability of the first is higher: 0.833 for the first, 0.77 for the second.

Compared with IA-LM, LOU-NH91 is lower in relative viability: 0.805 for the first, 0.716 for the second.

First: ChaGo-K-1
Second: NCI-H2170
The relative viability of the first is lower: 1.14 for the first, 1.24 for the second.

Compared with NCI-H2405, A549 is lower in relative viability: 0.878 for the first, 0.87 for the second.

Compared with NCI-H1299, CAL-12T is lower in relative viability: 0.976 for the first, 0.753 for the second.

Going from NCI-H2228 to NCI-H1563, the relative viability rises from 0.522 to 0.91.

Going from NCI-H1944 to ABC-1, the relative viability rises from 1.13 to 1.64.

Cell Line NCI-H358 has a relative viability of 0.703.

same assay, conditions: first compound 2.53 µM

Compared with NCI-H727, NCI-H1650 is lower in relative viability: 1.1 for the first, 1.05 for the second.

First: EBC-1
Second: NCI-H1703
The relative viability of the first is lower: 0.19 for the first, 0.44 for the second.

Compared with NCI-H1993, SW 1573 is higher in relative viability: 0.834 for the first, 1 for the second.

First: NCI-H838
Second: LCLC-103H
The relative viability of the first is lower: 0.941 for the first, 0.994 for the second.

Going from NCI-H520 to NCI-H2126, the relative viability rises from 0.758 to 1.

Compared with EMC-BAC-2, NCI-H2085 is higher in relative viability: 0.772 for the first, 1.03 for the second.

Going from Calu-6 to HCC-366, the relative viability falls from 0.832 to 0.628.

Going from NCI-H1666 to NCI-H596, the relative viability falls from 0.944 to 0.806.

Going from LK-2 to NCI-H2087, the relative viability rises from 0.279 to 0.997.

Compared with SK-MES-1, H3255 is lower in relative viability: 1.03 for the first, 0.917 for the second.

First: COR-L23
Second: COR-L 105
The relative viability of the first is lower: 0.679 for the first, 0.898 for the second.

Going from IA-LM to LOU-NH91, the relative viability rises from 0.644 to 0.727.

First: ChaGo-K-1
Second: NCI-H2170
The relative viability of the first is lower: 1.09 for the first, 1.22 for the second.

Compared with NCI-H2405, A549 is lower in relative viability: 0.857 for the first, 0.831 for the second.

Going from NCI-H1299 to CAL-12T, the relative viability falls from 0.93 to 0.677.

Compared with NCI-H2228, NCI-H1563 is higher in relative viability: 0.437 for the first, 0.889 for the second.

Going from NCI-H1944 to ABC-1, the relative viability rises from 1.17 to 1.18.

With NCI-H358 the relative viability was 0.704.

same assay, conditions: first compound 8 µM

Going from NCI-H727 to NCI-H1650, the relative viability rises from 0.83 to 1.02.

Compared with EBC-1, NCI-H1703 is higher in relative viability: 0.222 for the first, 0.733 for the second.

Going from NCI-H1993 to SW 1573, the relative viability falls from 0.828 to 0.632.

Going from NCI-H838 to LCLC-103H, the relative viability rises from 0.904 to 1.05.

Going from NCI-H520 to NCI-H2126, the relative viability rises from 0.586 to 1.03.

Going from EMC-BAC-2 to NCI-H2085, the relative viability rises from 0.731 to 0.742.

First: Calu-6
Second: HCC-366
The relative viability of the first is higher: 0.707 for the first, 0.325 for the second.

Compared with NCI-H1666, NCI-H596 is higher in relative viability: 0.728 for the first, 0.778 for the second.

First: LK-2
Second: NCI-H2087
The relative viability of the first is lower: 0.216 for the first, 0.896 for the second.

First: SK-MES-1
Second: H3255
The relative viability of the first is lower: 1 for the first, 1.05 for the second.

First: COR-L23
Second: COR-L 105
The relative viability of the first is lower: 0.638 for the first, 0.723 for the second.

First: IA-LM
Second: LOU-NH91
The relative viability of the first is higher: 0.76 for the first, 0.715 for the second.

Compared with ChaGo-K-1, NCI-H2170 is lower in relative viability: 0.942 for the first, 0.909 for the second.

First: NCI-H2405
Second: A549
The relative viability of the first is higher: 0.87 for the first, 0.826 for the second.

Compared with NCI-H1299, CAL-12T is lower in relative viability: 0.989 for the first, 0.585 for the second.

First: NCI-H2228
Second: NCI-H1563
The relative viability of the first is lower: 0.554 for the first, 0.804 for the second.

Going from NCI-H1944 to ABC-1, the relative viability rises from 1.05 to 1.13.

For NCI-H358, the relative viability was 0.594.

Source: the supplement of paper PMC10307832
